Assay results as given in patent US10577383B2, “Macrocyclic inhibitors of myeloperoxidase” (BRISTOL-MYERS SQUIBB COMPANY, priority 2016, dated 2020).

Columns and labels:
myeloperoxidase [1] = molecular target: T1, myeloperoxidase (Homo sapiens (Human), UniProt P05164); test: MPO Peroxidation Assay (Amplex Red Assay); assay type: biochemical; details: MPO peroxidation activity, 100 mM KPi (pH 7.4), ten minute preincubation; potency ranges defined in nM
Procedure: MPO Peroxidation Assay (Amplex Red Assay)
MPO peroxidation activity was measured in 100 mM KPi (pH 7.4) by utilizing the non-fluorescent reagent Amplex Red (Invitrogen Cat. #A12222) which can be oxidized to the highly fluorescent resorufin. Amplex Red is oxidized by the peroxidase action of MPO to resorufin. Reactions were carried out in 50 μL total volume by adding a 25 μL mixture of 200 pM myeloperoxidase and 40 nM H2O2 (Sigma #349887) to 100 nL inhibitor in 100% DMSO in a 384 well Perkin Elmer Optiplate. Enzyme and compound were preincubated for ten minutes at room temperature.
After the ten minute preincubation, 25 μL of an Amplex Red mixture containing 200 μM Amplex Red and 10 mM H2O2 was added to the plate. Kinetic determinations were carried out immediately on a Perkin Elmer Envision (15 minute kinetic read, Ex: 535 nm, Em: 590 nm).
(§1) IC50 values were calculated by determining the slope of the linear portion of the kinetic trace (180-540 secs), and using that calculated slope to determine % inhibition occurring at each concentration of inhibitor using the following equation:
(§2) [formula] where A=minimal Y value (activity level of inhibited sample), B=maximal Y value (activity level of uninhibited sample), C=Log IC50, D=Hill Slope, x=concentration of inhibitor. MPO Chlorination Assay (APF Assay) MPO chlorination activity was measured in 100 mM KPi (pH 7.4) by utilizing the non-fluorescent reagent Aminophenyl fluorescein (APF, Invitrogen Cat. #A36003). APF is cleaved by (—OCl) to yield the fluorescent compound fluorescein. Reactions were carried out in 50 μL total volume by adding a 25 μL mixture of 200 pM myeloperoxidase and 120 mM NaCl to 100 nL inhibitor in 100% DMSO in a 384 well, non-binding surface clear bottom plate (Corning #3655). Enzyme, inhibitor, and chloride were preincubated for ten minutes at room temperature.

myeloperoxidase [2] = molecular target: T1, myeloperoxidase; test: MPO Chlorination Assay (APF Assay); assay type: biochemical; details: MPO chlorination activity, 100 mM KPi (pH 7.4), 120 mM NaCl, ten minute preincubation; potency ranges defined in nM
Procedure: as §2
After the ten minute preincubation, 25 μL of an APF mixture containing […], 120 mM NaCl and 10 μM H2O2 was added to the plate using the internal dispensing system of a Hammatsu FDSS 6000. Kinetic determinations were carried out immediately on the FDSS 6000 (3 minute kinetic read, 1 read every second, ex: 485 nm, em: 535 nm). IC50 values for inhibitors were calculated by taking the slope of the linear portion of the kinetic measurement (20 seconds to 80-120 secs).
as §1
[formula] where A=minimal Y value (activity level of inhibited sample), B=maximal Y value (activity level of uninhibited sample), C=Log IC50, D=Hill Slope, x=concentration of inhibitor. EPX Bromination Assay

T1 sequence (P05164 49-745): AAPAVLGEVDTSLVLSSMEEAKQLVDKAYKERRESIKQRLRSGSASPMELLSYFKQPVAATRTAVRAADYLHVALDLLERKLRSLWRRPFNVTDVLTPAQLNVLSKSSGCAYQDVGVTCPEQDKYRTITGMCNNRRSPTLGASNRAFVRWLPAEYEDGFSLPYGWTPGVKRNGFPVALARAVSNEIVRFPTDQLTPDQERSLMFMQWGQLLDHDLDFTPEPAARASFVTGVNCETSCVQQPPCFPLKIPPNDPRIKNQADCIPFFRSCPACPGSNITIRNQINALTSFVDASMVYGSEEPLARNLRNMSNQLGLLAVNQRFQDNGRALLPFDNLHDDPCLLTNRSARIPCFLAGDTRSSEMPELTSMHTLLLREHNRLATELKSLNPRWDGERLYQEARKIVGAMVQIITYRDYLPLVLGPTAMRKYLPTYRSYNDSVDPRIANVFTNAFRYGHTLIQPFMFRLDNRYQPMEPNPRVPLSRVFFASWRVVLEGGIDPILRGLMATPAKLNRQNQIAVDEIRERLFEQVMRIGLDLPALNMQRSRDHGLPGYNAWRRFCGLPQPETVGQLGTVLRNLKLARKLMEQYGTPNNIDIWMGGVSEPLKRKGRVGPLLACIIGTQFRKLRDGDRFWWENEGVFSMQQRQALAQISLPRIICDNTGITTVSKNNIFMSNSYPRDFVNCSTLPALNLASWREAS

Compound | IC50 (myeloperoxidase [1]) | IC50 (myeloperoxidase [2])
Nc1cc(C2CCNC34CCC(c5ccccc5)(CC3)[C@H](C4)Oc3cccc(c3)CCn3cc2cn3)c2nn[nH]c2n1 (stereo partly drawn) [Example 29, 7-[(18S)-19-Phenyl-17-oxa-2,8,9-triazapentacyclo[17.2.2.1^1,^1^8.1^6,^9.1^12,^1^6]hexacosa-6(26),7,12(25),13,15-pentaen-5-yl]-3H-[1,2,3]triazolo[4,5-b]pyridin-5-amine] | 1 to 100 nM | 1 to 100 nM
COc1ccc2cc1OCc1cccc(c1)Cn1cc(cn1)C(c1cc(N)nc3[nH]nnc13)CCNC2 (stereo not shown) [Example 13, 7-{15-Methoxy-17-oxa-3,4,10-triazatetracyclo[17.3.1.1^3,^6.1^12,^1^6]pentacosa-1(23),4,6(25),12(24),13,15,19,21-octaen-7-yl}-3H-[1,2,3]triazolo[4,5-b]pyridin-5-amine] | 1000 to 10000 nM | 101 to 999 nM
Nc1cc(C2CCNCCCOc3cccc(c3)Cn3cc2cn3)c2nn[nH]c2n1 (stereo not shown) [Example 17, 7-{14-Oxa-3,4,10-triazatricyclo[13.3.1.1^3,^6]icosa-1(19),4,6(20),15,17-pentaen-7-yl}-3H-[1,2,3]triazolo[4,5-b]pyridin-5-amine] | 1000 to 10000 nM | 101 to 999 nM
Nc1cc(C2CCN3C[C@H](COc4cccc(c4)Cn4cc2cn4)[C@@H](c2ccccc2)C3)c2nn[nH]c2n1 (stereo partly drawn) [Example 34, 7-[(12S,13R)-12-Phenyl-15-oxa-3,4,10-triazatetracyclo[14.3.1.1^3,^6.1^1^0,^13]docosa-1(20),4,6(22),16,18-pentaen-7-yl]-3H-[1,2,3]triazolo[4,5-b]pyridin-5-amine] | 1000 to 10000 nM | 101 to 999 nM
C[C@@H]1Cc2cccc(c2)Oc2cccc(c2)Cn2cc(cn2)C(c2cc(N)nc3[nH]nnc23)CCN1 (stereo partly drawn) [Example 8, 7-[(11R)-11-Methyl-18-oxa-3,4,10-triazatetracyclo[17.3.1.1^3,^6.1^13,^1^7]pentacosa-1(23),4,6(25),13,15,17(24),19,21-octaen-7-yl]-3H-[1,2,3]triazolo[4,5-b]pyridin-5-amine] | 101 to 999 nM | 1 to 100 nM
CN1CCC(c2cc(N)nc3[nH]nnc23)c2cnn(c2)Cc2cccc(c2)Oc2cccc(c2)C1 (stereo not shown) [Example 6, 7-{10-methyl-17-oxa-3,4,10-triazatetracyclo[16.3.1.1^3,^6.1^12,^1^6]tetracosa-1(22),4,6(24),12,14,16(23),18,20-octaen-7-yl}-3H-[1,2,3]triazolo[4,5-b]pyridin-5-amine] | 1000 to 10000 nM | 101 to 999 nM
Nc1cc(C2CCNCc3ccc(F)c(c3)COc3ccc(F)c(c3)Cn3cc2cn3)c2nn[nH]c2n1 (stereo not shown) [Example 24, 7-{15,22-Difluoro-18-oxa-3,4,10-triazatetracyclo[17.3.1.1^3,^6.1^12,^1^6]pentacosa-1(23),4,6(25),12,14,16(24),19,21-octaen-7-yl}-3H-[1,2,3]triazolo[4,5-b]pyridin-5-amine] | 101 to 999 nM | 1 to 100 nM
Nc1cc(C2CCN3C[C@H](Cc4ccccc4)[C@@H](C3)Oc3cccc(c3)Cn3cc2cn3)c2nn[nH]c2n1 (stereo partly drawn) [Example 31, 7-[(3S,4S)-4-Benzyl-2-oxa-6,12,13-triazatetracyclo[13.3.1.1^3,^6.1^1^0,^13]henicosa-1(18),10(20),11,15(19),16-pentaen-9-yl]-3H-[1,2,3]triazolo[4,5-b]pyridin-5-amine] | 101 to 999 nM | 1 to 100 nM
Nc1cc(C2CCNC34CCC(c5ccccc5)(CC3)[C@H](C4)Oc3cccc(c3)Cn3cc2cn3)c2nn[nH]c2n1 (stereo partly drawn) [Example 27, 7-[(17S)-18-Phenyl-16-oxa-2,8,9-triazapentacyclo[16.2.2.1^1,^1^7.1^6,^9.1^11,^1^5]pentacosa-6(25),7,11(24),12,14-pentaen-5-yl]-3H-[1,2,3]triazolo[4,5-b]pyridin-5-amine] | 1 to 100 nM | 1 to 100 nM
Nc1cc(C2CCNCC3(CC3)COc3cccc(c3)Cn3cc2cn3)c2nn[nH]c2n1 (single isomer, unassigned) [Example 21, 7-{14′-Oxa-3′,4′,10′-triazaspiro[cyclopropane-1,12′-tricyclo[13.3.1.1^3,^6]icosane]-1′(19′),4′,6′(20′),15′,17′-pentaen-7′-yl}-3H-[1,2,3]triazolo[4,5-b]pyridin-5-amine] | 101 to 999 nM | 1 to 100 nM
Nc1cc(C2CCNCCc3cccc(c3)-c3cccc(c3)Cn3cc2cn3)c2nn[nH]c2n1 (stereo not shown) [Example 30, 7-{8,9,15-triazatetracyclo[16.3.1.1^2,^6.1^8,^11]tetracosa-1(22),2,4,6(24),9,11(23),18,20-octaen-12-yl}-3H-[1,2,3]triazolo[4,5-b]pyridin-5-amine] | 101 to 999 nM | 1 to 100 nM
Nc1cc(C2CCNCc3cccc(c3)OCc3cccc(c3)Cn3cc2cn3)c2nn[nH]c2n1 (stereo not shown) [Example 9, 7-{17-Oxa-3,4,10-triazatetracyclo[17.3.1.1^3,^6.1^12,^1^6]pentacosa-1(23),4,6(25),12,14,16(24),19,21-octaen-7-yl}-3H-[1,2,3]triazolo[4,5-b]pyridin-5-amine] | 1 to 100 nM | 1 to 100 nM
Nc1cc(C2CCN[C@H]3CC[C@@H](COc4cccc(c4)Cn4cc2cn4)C3)c2nn[nH]c2n1 (stereo partly drawn) [Example 32, 7-[(11S,14R)-16-Oxa-3,4,10-triazatetracyclo[15.3.1.1^3,^6.1^11,^1^4]tricosa-1(21),4,6(23),17,19-pentaen-7-yl]-3H-[1,2,3]triazolo[4,5-b]pyridin-5-amine] | 101 to 999 nM | 1 to 100 nM
Nc1cc(C2CCNCC(=O)N(CCc3ccccc3)Cc3cccc(c3)Cn3cc2cn3)c2nn[nH]c2n1 (stereo not shown) [Example 33, 7-{5-Amino-3H-[1,2,3]triazolo[4,5-b]pyridin-7-yl}-13-(2-phenylethyl)-3,4,10,13-tetraazatricyclo[13.3.1.1^3,^6]icosa-1(19),4,6(20),15,17-pentaen-12-one] | 101 to 999 nM | 1 to 100 nM
Nc1cc(C2CCNCC(F)(F)c3cccc(c3)Oc3cccc(c3)Cn3cc2cn3)c2nn[nH]c2n1 (stereo not shown) [Example 36, 7-{12,12-Difluoro-18-oxa-3,4,10-triazatetracyclo[17.3.1.1^3,^6.1^13,^1^7]pentacosa-1(23),4,6(25),13,15,17(24),19,21-octaen-7-yl}-3H-[1,2,3]triazolo[4,5-b]pyridin-5-amine] | 1000 to 10000 nM | 1 to 100 nM
COCCN1CCc2cccc(c2)Oc2cccc(c2)Cn2cc(cn2)C(c2cc(N)nc3[nH]nnc23)CC1 (stereo not shown) [Example 37, 7-[10-(2-Methoxyethyl)-18-oxa-3,4,10-triazatetracyclo[17.3.1.1^3,^6.1^13,^1^7]pentacosa-1(23),4,6(25),13,15,17(24),19,21-octaen-7-yl]-3H-[1,2,3]triazolo[4,5-b]pyridin-5-amine] | 1000 to 10000 nM | 101 to 999 nM
Nc1cc(C2CCNCc3ccc(F)c(c3)OCc3cccc(c3)Cn3cc2cn3)c2nn[nH]c2n1 (stereo not shown) [Example 14, 7-{15-Fluoro-17-oxa-3,4,10-triazatetracyclo[17.3.1.1^3,^6.1^12,^1^6]pentacosa-1(23),4,6(25),12(24),13,15,19,21-octaen-7-yl}-3H-[1,2,3]triazolo[4,5-b]pyridin-5-amine] | 1000 to 10000 nM | 1 to 100 nM
Nc1cc(C2CCNCC3(CCCC3)COc3cccc(c3)Cn3cc2cn3)c2nn[nH]c2n1 (stereo not shown) [Example 22, 7-{14′-Oxa-3′,4′,10′-triazaspiro[cyclopentane-1,12′-tricyclo[13.3.1.1^3,^6]icosane]-1′(19′),4′,6′(20′),15′,17′-pentaen-7′-yl}-3H-[1,2,3]triazolo[4,5-b]pyridin-5-amine] | 101 to 999 nM | 1 to 100 nM
Nc1cc(C2CCNCc3cc(Cl)cc(c3)OCc3cccc(c3)Cn3cc2cn3)c2nn[nH]c2n1 (stereo not shown) [Example 15, 7-{14-Chloro-17-oxa-3,4,10-triazatetracyclo[17.3.1.1^3,^6.1^12,^1^6]pentacosa-1(23),4,6(25),12(24),13,15,19,21-octaen-7-yl}-3H-[1,2,3]triazolo[4,5-b]pyridin-5-amine] | 101 to 999 nM | 1 to 100 nM
Nc1cc([C@@H]2CCN[C@H]3C[C@H](Cc4ccccc4)[C@@H](C3)Oc3cccc(c3)Cn3cc2cn3)c2nn[nH]c2n1 [Example 25, 7-[(3R,4S,6S,10S)-4-Benzyl-2-oxa-7,13,14-triazatetracyclo[14.3.1.1^3,^6.1^11,^1^4]docosa-1(19),11(21),12,16(20),17-pentaen-10-yl]-3H-[1,2,3]triazolo[4,5-b]pyridin-5-amine] | 1 to 100 nM | 1 to 100 nM
